Results: publication PMC5390315 (Scientific Reports, 2017)
“And” between values parts separate entries of the source, which are not always exact repeats. Equal values may be shown once. Read-outs that look alike come from different tables or passages of the source.

How the values were obtained:
HeLa = assay: Antiproliferative MTT assay, HeLa; type: cell-based, human; details: 72 h, mean ± SE
Protocol: (§1) Human T-cell leukemia (Jurkat) and human B-cell leukemia (SEM and RS4;11) cells were grown in RPMI-1640 medium (Gibco, Milano, Italy). Breast adenocarcinoma (MCF-7), human cervix carcinoma (HeLa), human lung adenocarcinoma (A549) and human colon adenocarcinoma (HT-29) cells were grown in DMEM medium (Gibco, Milano, Italy), all supplemented with 115 units/mL penicillin G (Gibco, Milano, Italy), 115 μg/mL streptomycin (Invitrogen, Milano, Italy), and 10% fetal bovine serum (FBS; Invitrogen, Milano, Italy). Stock solutions (10 mM) of the different compounds were obtained by dissolving them in DMSO. Individual wells of a 96-well tissue culture microtiter plate were inoculated with 100 μL of complete medium containing 8 × 10^3 cells. The plates were incubated at 37 °C in a humidified 5% CO2 incubator for 18 h prior to the experiments. After medium removal, 100 μL of fresh medium containing the test compound at different concentrations was added to each well in triplicate and incubated at 37 °C for 72 h. The percentage of DMSO in the medium never exceeded 0.25%. This was also the maximum DMSO concentration in all cell-based assays described below.

A549 = assay: Antiproliferative MTT assay, A549; type: cell-based, human; details: mean ± SE
Protocol: as §1

HT-29 = assay: Antiproliferative MTT assay, HT-29; type: cell-based, human; details: mean ± SE
Protocol: as §1

MCF-7 = assay: Antiproliferative MTT assay, MCF-7; type: cell-based, human; details: mean ± SE
Protocol: as §1

Jurkat = assay: Antiproliferative MTT assay, Jurkat; type: cell-based, human; details: 72 h, mean ± SE
Protocol: as §1

RS 4;11 = assay: Antiproliferative MTT assay, RS 4;11; type: cell-based, human; details: mean ± SE
Protocol: as §1

SEM cells = assay: Antiproliferative MTT assay, SEM; type: cell-based, human; details: 72 h, mean ± SE
Protocol: as §1

[1] = tested on: panel of seven human tumor cell lines; assay: Antiproliferative activity, range over panel of seven human tumor cell lines; type: cell-based
Protocol: as §1

[2] = tested on: BL6-B16 murine melanoma cells; assay: Mouse allograft tumor model (BL6-B16 melanoma); type: in vivo
Description: Animal experiments were approved by our local animal ethics committee (OPBA, Organismo Preposto al Benessere degli Animali, Università degli Studi di Brescia, Italy) and were executed in accordance with national guidelines and regulations. Procedures involving animals and their care conformed with institutional guidelines that comply with national and international laws and policies (EEC Council Directive 86/609, OJ L 358, 12 December 1987) and with “ARRIVE” guidelines (Animals in Research Reporting In Vivo Experiments). Six week old C57BL/6 mice (Charles River, Calco) were injected subcutaneously into the dorsolateral flank with 2.5x10^5 BL6-B16 murine melanoma cells in 200 μL of PBS. When tumors were palpable, animals were treated intraperitoneally every other day with different doses of test compounds dissolved in 50 μL of DMSO. Tumors were measured in two dimensions, and tumor volume was calculated according to the formula V = (D × d^2)/2, where D and d are the major and minor perpendicular tumor diameters, respectively.

[3] = tested on: panel of five cancer cell lines; design: method as in PMID 23117171; details: read-out: IC50 range (Figure 1); cited from earlier work
bovine brain tubulin = assay: Inhibition of tubulin polymerization; type: biochemical; details: tubulin at 10 μM; read-out: Tubulin assembly IC50 ± S.D
Protocol: (§2) To evaluate the effect of the compounds on tubulin assembly in vitro[41], varying concentrations of compounds were preincubated with 10 μM bovine brain tubulin in 0.8 M monosodium glutamate (pH adjusted to 6.6 with HCl in a 2.0 M stock solution) at 30 °C and then cooled to 0 °C. After addition of 0.4 mM GTP, the mixtures were transferred to 0 °C cuvettes in a recording spectrophotometer and warmed to 30 °C. Tubulin assembly was followed turbidimetrically at 350 nm. […] The capacity of the test compounds to inhibit colchicine binding to tubulin was measured as described, except that the reaction mixtures contained 1 μM tubulin, 5 μM [^3H]colchicine and 1 or 5 μM test compound.

tubulin = assay: Inhibition of [3H]colchicine binding to tubulin; details: tubulin 1 μM, [3H]colchicine 5 μM
Protocol: as §2

[4] = Homo sapiens, read-out: IC50 values, range over the cell line panel

Row | IC50 (HeLa; Homo sapiens, HeLa) | IC50 (A549; Homo sapiens, A549, 72 h) | IC50 (HT-29; Homo sapiens, HT-29, 72 h) | IC50 (MCF-7; Homo sapiens, MCF7, 72 h) | IC50 (Jurkat; Homo sapiens, Jurkat) | IC50 (bovine brain tubulin) | Colchicine binding % inhibition ± S.D, 5 μM drug (tubulin) | melting point | Compound | IC50 (RS 4;11; Homo sapiens, RS4-11, 72 h) | IC50 (SEM cells; Homo sapiens) | also measured
1 | 31 ± 16 nM | 92.3 ± 21.5 nM | 53 ± 24.6 nM | 244 ± 74.2 nM | 102 ± 22.6 nM | 660 nM | 86% and 82 ± 3% | 110 to 112 °C | COc1cc(-c2nc(C)oc2-c2ccc(C)cc2)cc(OC)c1OC [Compound 4d, 4-(3,4,5-Trimethoxyphenyl)-2-methyl-5-p-tolyloxazole] | 25.3 ± 3.2 nM | 134 ± 39.5 nM | Colchicine binding % inhibition ± S.D, 1 μM drug (tubulin): 55 ± 3%; IC50 [1, 4]: 25 to 243 nM
2 | 2.4 ± 0.6 nM | 0.65 ± 0.08 nM | 3.3 ± 1.1 nM | 2.5 ± 0.7 nM | 4.6 ± 1 nM | 1200 nM | 78 ± 0.5% | 127 to 129 °C | COc1ccc(-c2oc(C)nc2-c2cc(OC)c(OC)c(OC)c2)cc1F [Compound 4g, 5-(3-Fluoro-4-methoxyphenyl)-4-(3,4,5-trimethoxyphenyl)-2-methyloxazole] | 0.35 ± 0.15 nM | 3.9 ± 0.8 nM | Colchicine binding % inhibition ± S.D, 1 μM drug (tubulin): 51 ± 1%; IC50 [1, 4]: 0.35 to 4.6 nM
3 | 4.2 ± 1.3 nM | 20.3 ± 11.4 nM | 0.9 ± 0.5 nM | 1.5 ± 0.6 nM | 77.7 ± 6.1 nM | 1800 ± 100 nM | 53 ± 3% | 124 to 126 °C | CCOc1ccc(-c2oc(C)nc2-c2cc(OC)c(OC)c(OC)c2)cc1Cl [Compound 4j, 5-(3-Chloro-4-ethoxyphenyl)-4-(3,4,5-trimethoxyphenyl)-2-methyloxazole] | 20.2 ± 5.4 nM | 51 ± 13.5 nM | –
4 | 37 ± 14.4 nM | 45.2 ± 12.5 nM | 315 ± 145 nM | 5.2 ± 2.4 nM | 638 ± 154 nM | 1600 ± 100 nM | 64 ± 4% | 95 to 97 °C | COc1cc(-c2oc(C)nc2-c2ccc3ccccc3c2)cc(OC)c1OC [Compound 5a, 5-(3,4,5-Trimethoxyphenyl)-2-methyl-4-(naphthalen-3-yl)oxazole] | 250 ± 89.3 nM | – | –
5 | > 10000 nM | > 10000 nM | > 10000 nM | > 10000 nM | 9000 ± 577 nM | – | – | 132 to 133 °C | COc1cc(-c2oc(C)nc2-c2ccc(F)cc2)cc(OC)c1OC [Compound 5b, 4-(4-Fluorophenyl)-5-(3,4,5-trimethoxyphenyl)-2-methyloxazole] | > 10000 nM | > 10000 nM | IC50 ([1]; Homo sapiens, read-out: IC50 values against all cell lines screened): > 9000 nM
6 | 2560 ± 475 nM | > 10000 nM | > 10000 nM | > 10000 nM | 5250 ± 0.934 nM | – | – | 149 to 151 °C | COc1cc(-c2oc(C)nc2-c2ccc(Cl)cc2)cc(OC)c1OC [Compound 5c, 4-(4-Chlorophenyl)-5-(3,4,5-trimethoxyphenyl)-2-methyloxazole] | 815 ± 406 nM | 6570 ± 500 nM | –
7 | 148 ± 55.3 nM | 2580 ± 289 nM | 523 ± 61.8 nM | 360 ± 52.6 nM | 922 ± 76.6 nM | – | – | 128 to 129 °C | COc1cc(-c2oc(C)nc2-c2ccc(C)cc2)cc(OC)c1OC [Compound 5d, 5-(3,4,5-Trimethoxyphenyl)-2-methyl-4-p-tolyloxazole] | 635 ± 387 nM | 352 ± 77.8 nM | –
8 | 24 ± 10.5 nM | 243 ± 51.5 nM | 12.3 ± 5.9 nM | 83.8 ± 20.2 nM | 43.6 ± 12.3 nM | 2600 ± 300 nM | 54 ± 3% | 108 to 110 °C | COc1ccc(-c2nc(C)oc2-c2cc(OC)c(OC)c(OC)c2)cc1 [Compound 5e, 5-(3,4,5-Trimethoxyphenyl)-4-(4-methoxyphenyl)-2-methyloxazole] | 17.3 ± 4.2 nM | 96.6 ± 22.5 nM | –

Further lines, the compound ahead of its results:

Row | Compound | IC50 (HeLa; Homo sapiens, HeLa) | IC50 (A549; Homo sapiens, A549, 72 h) | IC50 (HT-29; Homo sapiens, HT-29, 72 h) | IC50 (MCF-7; Homo sapiens, MCF7, 72 h) | IC50 (Jurkat; Homo sapiens, Jurkat) | IC50 (bovine brain tubulin) | Colchicine binding % inhibition ± S.D, 5 μM drug (tubulin) | melting point | IC50 (RS 4;11; Homo sapiens, RS4-11, 72 h) | IC50 (SEM cells; Homo sapiens) | also measured
9 | 5-(3,4,5-Trimethoxyphenyl)-4-(3-methoxyphenyl)-2-methyloxazole [Compound 4f] | – | – | – | – | – | – | – | – | – | – | IC50 (HeLa): > 10000 nM; IC50 (A549; 72 h): > 10000 nM; IC50 (HT-29; 72 h): > 10000 nM; IC50 (MCF-7; 72 h): > 10000 nM; IC50 (Jurkat): 5230 ± 88.2 nM; IC50 (RS 4;11; 72 h): 5330 ± 167 nM; IC50 (SEM cells): 3630 ± 171 nM
10 | 5-(3,4,5-Trimethoxyphenyl)-4-(4-chlorophenyl)-2-methyloxazole [Compound 4c] | – | – | – | – | – | – | – | – | – | – | IC50 (HeLa): 2820 ± 169 nM; IC50 (A549; 72 h): 8780 ± 2310 nM; IC50 (HT-29; 72 h): 1400 ± 384 nM; IC50 (MCF-7; 72 h): 2590 ± 447 nM; IC50 (Jurkat): 5580 ± 888 nM; IC50 (RS 4;11; 72 h): 840 ± 260 nM; IC50 (SEM cells): 2210 ± 256 nM
11 | 5-(3,4,5-Trimethoxyphenyl)-4-(4-fluorophenyl)-2-methyloxazole [Compound 4b] | – | – | – | – | – | – | – | – | – | – | IC50 (HeLa): > 10000 nM; IC50 (A549; 72 h): > 10000 nM; IC50 (HT-29; 72 h): > 10000 nM; IC50 (MCF-7; 72 h): > 10000 nM; IC50 (Jurkat): > 10000 nM; IC50 (RS 4;11; 72 h): > 10000 nM; IC50 (SEM cells): 9550 ± 2050 nM; IC50 ([1]; read-out: IC50 values against all cell lines screened): > 9000 nM
12 | COc1ccc(/C=C\c2cc(OC)c(OC)c(OC)c2)cc1OP(=O)(O)O [CA-4P, CA-4 disodium phosphate, reference compound] | – | – | – | – | – | – | – | – | – | – | reduction in tumor mass [2]: 28.0%
13 | COc1cc(-c2nc(C)sc2-c2ccc(C)cc2)cc(OC)c1OC [Compound 3a] | – | – | – | – | – | – | – | – | – | – | IC50 [3]: 520 to 1900 nM
14 | COc1ccc(-c2sc(C)nc2-c2cc(OC)c(OC)c(OC)c2)cc1 [Compound 3b] | – | – | – | – | – | – | – | – | – | – | IC50 [3]: 500 to 3400 nM
15 | CCOc1ccc(-c2sc(C)nc2-c2cc(OC)c(OC)c(OC)c2)cc1 [Compound 3c] | – | – | – | – | – | – | – | – | – | – | IC50 [3]: 43 to 3300 nM
16 | COc1cc(-c2nc(C)sc2-c2ccc3ccccc3c2)cc(OC)c1OC [Compound 3d] | – | – | – | – | – | – | – | – | – | – | IC50 [3]: 33 to 700 nM
17 | COc1ccc(-c2nc(C)sc2-c2cc(OC)c(OC)c(OC)c2)cc1 [Compound 3e, 2-methyl-4-(4′-methoxyphenyl)-5-(3′,4’,5′-trimethoxyphenyl)thiazole, reference compound] | 1980 ± 780 nM | 2760 ± 1200 nM | 3700 ± 263 nM | 1930 ± 448 nM | 7200 ± 586 nM | – | – | – | 2970 ± 738 nM | 1980 ± 780 nM | –
18 | COc1ccc(-c2oc(C)nc2-c2cc(OC)c(OC)c(OC)c2)cc1 [Compound 4e, 4-(3,4,5-Trimethoxyphenyl)-5-(4-methoxyphenyl)-2-methyloxazole] | 10.8 ± 4.7 nM | 179 ± 36.3 nM | 40.8 ± 19.7 nM | 27.7 ± 12 nM | 18.7 ± 6 nM | 950 ± 100 nM | 78 ± 3% | 134 to 136 °C | 7.6 ± 2.3 nM | 35.6 ± 12.5 nM | Colchicine binding % inhibition ± S.D, 1 μM drug (tubulin): 47 ± 4%
19 | COc1ccc(-c2oc(C)nc2-c2cc(OC)c(OC)c(OC)c2)cc1Cl [Compound 4h, 5-(3-Chloro-4-methoxyphenyl)-4-(3,4,5-trimethoxyphenyl)-2-methyloxazole] | 169 ± 75.5 nM | 138 ± 13.7 nM | 207 ± 93 nM | 144 ± 64.3 nM | 512 ± 92.7 nM | – | – | 150 to 152 °C | 47 ± 13.9 nM | 233 ± 34.6 nM | –
